Biological target: T1, trypsin (Bos taurus, UniProt P00760)
T1 construct: gene PRSS1
T1 sequence (P00760 24-246): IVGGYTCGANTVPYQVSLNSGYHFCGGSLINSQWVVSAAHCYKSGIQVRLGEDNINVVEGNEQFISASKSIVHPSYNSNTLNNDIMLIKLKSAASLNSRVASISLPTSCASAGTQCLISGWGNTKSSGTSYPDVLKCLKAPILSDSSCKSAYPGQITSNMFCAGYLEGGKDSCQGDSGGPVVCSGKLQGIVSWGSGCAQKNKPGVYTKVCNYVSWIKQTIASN
Assay: Polyclonal phage TRF binding assay on trypsin
Conditions: phage display; direct gene-III fusion or round-2 polyclonal phage
Description: Phage display technology facilitates isolation of binders to any given target from large combinatorial repertoires based on proteins and peptides that can be presented on the surface of filamentous phage^105. In order to isolate functional knottin-antibody fusions from the KnotBody libraries multiple rounds of phage display selections on trypsin (cognate antigen for the EETI-II donor) were carried out. Phage particles were prepared by rescuing KnotBody libraries using trypsin cleavable helper phage^102,106Two rounds of phage display selections were performed on 10 μg/ml biotinylated trypsin immobilised on Streptavidin (for Round-1) or Neutravidin (for round-2) coated Maxisorp™ immunotubes (Thermo Scientific, Cat No. 444202). In both rounds of selection, phage libraries were pre-incubated with streptavidin coated paramagnetic beads (Thermo Fisher Scientific, Cat. No. 11205D). […] Polyclonal phage preparations from round-2 selection outputs were analysed for trypsin binding using a time resolved fluorescence (TRF) binding assay. In this assay, polyclonal phage binding to biotinylated trypsin immobilised on neutravidin (Thermo Fisher Scientific, Cat. No 31000) coated Maxisorp™ plates (Thermo Scientific, Cat. No. 437111) was detected using a mouse anti-M13 antibody (GE Healthcare, Cat. No. 27-9420-01) followed by europium conjugated anti-mouse antibody (Perkin Elmer, Cat. No. AD0124). […]

EETI-II
phage binding to trypsin: no detectable binding
